The values below come from patent publication US20040086901A1, “Database for analyzing gene function and method of analyzing gene function by dspa” (priority 2000, published 2004).

Non-standard residues stand in square brackets, D forms with d. Residues, ends and D or L forms follow the SMILES beside them. Nle = CCCC[C@H](N)C(=O)O

What all share (assay type): cell-based, mouse
In assay [1] the test system is NIH3T3 cells overexpressing Ki-ras. Nature of the assay: MTT cell viability, Ki-ras overexpressing cells vs parental line. The conditions noted are these: Ki-ras high-expressing cells / parental cell line, 3 to 4 days. An outline of the steps: (§1)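 Stable NIH3T3 transfectants (cDNA in pRc-CMV-type vector, G-418-selected, high expressers picked by Western blot) and parental cells were seeded at 1×10^5 cells/ml into twofold serial drug dilutions and grown 3–4 days. MTT formazan was read at 574/655 nm, and log ratios of IC40 values were derived.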

Assay [2] has as its system NIH3T3 cells overexpressing N-ras. Put plainly: MTT cell viability, N-ras overexpressing cells vs parental line. As to conditions: N-ras high-expressing cells / parental cell line, 3 to 4 days. An outline of the steps: as §1
In assay [3] the test system is NIH3T3 cells overexpressing Bax. Nature of the assay: MTT cell viability, Bax overexpressing cells vs parental line. The conditions noted are these: 3 to 4 days. An outline of the steps: (§2)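 Each full-length cDNA is expressed from a CMV vector in NIH3T3 cells, and a high-expressing clone is compared with the parental line. Viability is measured by MTT after 3–4 days with graded drug concentrations, and the log IC40 ratio is reported.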

Assay [4] has as its system NIH3T3 cells overexpressing TK. Nature of the assay: MTT cell viability, TK overexpressing cells vs parental line. As to conditions: TK high-expressing cells / parental cell line, 3 to 4 days. An outline of the steps:
as §1

The test system of assay [5] is NIH3T3 cells overexpressing calpastatin. Put plainly: MTT cell viability, calpastatin overexpressing cells vs parental line. The conditions noted are these: calpastatin high-expressing cells / parental cell line, 3 to 4 days. An outline of the steps:
as §1

The test system of assay [6] is NIH3T3 cells overexpressing cystatin alpha. Nature of the assay: MTT cell viability, cystatin alpha overexpressing cells vs parental line. As to conditions: cystatin alpha high-expressing cells / parental cell line, 3 to 4 days. An outline of the steps:
as §1

The test system of assay [7] is NIH3T3 cells overexpressing cystatin E. Put plainly: MTT cell viability, cystatin E overexpressing cells vs parental line. As to conditions: cystatin E high-expressing cells / parental cell line, 3 to 4 days. An outline of the steps:
as §1

The test system of assay [8] is NIH3T3 cells overexpressing caspase-1. Put plainly: MTT cell viability, caspase-1 overexpressing cells vs parental line. The conditions noted are these: caspase-1 high-expressing cells / parental cell line, 3 to 4 days. An outline of the steps:
as §2

The test system of assay [9] is NIH3T3 cells overexpressing caspase-2. Put plainly: MTT cell viability, caspase-2 overexpressing cells vs parental line. As to conditions: caspase-2 high-expressing cells / parental cell line, 3 to 4 days. An outline of the steps: as §1
Assay [10] deals with NIH3T3 cells overexpressing PDGF-R-Del. Nature of the assay: MTT cell viability, PDGF-R-Del overexpressing cells vs parental line. The conditions noted are these: PDGF-R-Del high-expressing cells / parental cell line, 3 to 4 days. An outline of the steps:
as §1

For assay [11], the system named is NIH3T3 cells overexpressing STAT1. Nature of the assay: MTT cell viability, STAT1 overexpressing cells vs parental line. As to conditions: STAT1 high-expressing cells / parental cell line, 3 to 4 days. An outline of the steps:
as §2

Assay [12] relates to NIH3T3 cells overexpressing CBP8. Put plainly: MTT cell viability, CBP8 overexpressing cells vs parental line. The conditions noted are these: CBP8 high-expressing cells / parental cell line, 3 to 4 days. An outline of the steps:
as §1

Assay [13] has as its system NIH3T3 cells overexpressing PKCepsilon-KN. Put plainly: MTT cell viability, PKCepsilon-KN overexpressing cells vs parental line. As to conditions: 3 to 4 days. An outline of the steps:
as §2

Assay [14] deals with NIH3T3 cells overexpressing p38-DN. Put plainly: MTT cell viability, p38-DN overexpressing cells vs parental line. As to conditions: p38-DN high-expressing cells / parental cell line, 3 to 4 days. An outline of the steps: as §2
Assay [15] deals with NIH3T3 cells overexpressing HNF1. Put plainly: MTT cell viability, HNF1 overexpressing cells vs parental line. The conditions noted are these: HNF1 high-expressing cells / parental cell line, 3 to 4 days. An outline of the steps: as §2
The subject of assay [16] is NIH3T3 cells overexpressing HNF3b. Nature of the assay: MTT cell viability, HNF3b overexpressing cells vs parental line. As to conditions: HNF3b high-expressing cells / parental cell line, 3 to 4 days. An outline of the steps:
as §2

Assay [17] concerns NIH3T3 cells overexpressing HNF4. Nature of the assay: MTT cell viability, HNF4 overexpressing cells vs parental line. The conditions noted are these: HNF4 high-expressing cells / parental cell line, 3 to 4 days. An outline of the steps: as §2
In assay [18] the test system is NIH3T3 cells overexpressing coup. Nature of the assay: MTT cell viability, coup overexpressing cells vs parental line. The conditions noted are these: coup high-expressing cells / parental cell line, 3 to 4 days. An outline of the steps:
as §1

Assay [19] deals with NIH3T3 cells overexpressing p33/ING1. Nature of the assay: MTT cell viability, p33/ING1 overexpressing cells vs parental line. As to conditions: p33/ING1 high-expressing cells / parental cell line, 3 to 4 days. An outline of the steps:
as §1

On to `CCCC[C@@H](C=O)NC(=O)[C@H](CC(C)C)NC(=O)[C@H](CC(C)C)NC(C)=O` [ALLN] (Ac-Leu-Leu-[Nle]-aldehyde), for which the “logarithmic value of ratio of IC40 values” in assay [1] is 0.11; in assay [2] it was 0.17; in assay [3] (Bax (first of two Bax lines) high-expressing cells / parental cell line) it was −0.10; in assay [3] (Bax (second of two Bax lines) high-expressing cells / parental cell line), 0.11; in [4] it was 0.00; in assay [5], 0.10. In addition, the “logarithmic value of ratio of IC40 values” is 0.07 in assay [6]; 0.19 in assay [7]; −0.04 in assay [8]; −0.04 in assay [9]; 0.10 in assay [10]; 0.17 in [11]. Besides, the “logarithmic value of ratio of IC40 values” in assay [12] amounted to 0.11; in assay [13] (PKCepsilon-KN (first of two lines) high-expressing cells / parental cell line) it was 0.07; in assay [13] (PKCepsilon-KN (second of two lines) high-expressing cells / parental cell line), 0.19; in assay [14], 0.04; in assay [15], 0.16; in assay [16], 0.28. Further, the “logarithmic value of ratio of IC40 values” in assay [17] is −0.15; in assay [18], 0.06; in assay [19], 0.08.
